Results: article PMC8445441, “Elucidating the mechanism by which synthetic helper peptides sensitize Pseudomonas aeruginosa to multiple antibiotics” (PLoS Pathogens, 2021)
“And” between values parts separate entries of the source, which are not always exact repeats. Equal values may be shown once. Read-outs that look alike come from different tables or passages of the source.

Columns and labels:
P. aeruginosa AUMC-Pa-3 = assay: microbe, parasite or virus in culture; settings: strain AUMC-Pa-3; for MICac: MIC of the antibiotic in the combination: with D-11 at MICbc 4
Procedure, shortened: (§1)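 CLSI broth dilution; MHB; ~1 × 10^6 CFU/mL suspension mixed equal volume with drug; 37 °C for 18 h; visual read; triplicate. Broth sometimes supplemented with PG, PE, PC, CL, LPS, MgCl2, CaCl2 or PAβN.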

P. aeruginosa AUMC-Pa-4 = assay: microbe, parasite or virus in culture; settings: strain AUMC-Pa-4; for MICa: MIC of the antibiotic: antibiotic alone; for MICa: MIC of the antibiotic / MICac: MIC of the antibiotic in the combination: unit not given; for MICac: MIC of the antibiotic in the combination: with D-11 at MICbc 4
Procedure, shortened: as §1

P. aeruginosa AUMC-Pa-5 = assay: microbe, parasite or virus in culture; settings: strain AUMC-Pa-5; for MICa: MIC of the antibiotic: antibiotic alone; for MICa: MIC of the antibiotic / MICac: MIC of the antibiotic in the combination: unit not given; for MICac: MIC of the antibiotic in the combination: with D-11 at MICbc 4
Procedure, shortened: as §1

P. aeruginosa AUMC-Pa-6 = assay: microbe, parasite or virus in culture; settings: strain AUMC-Pa-6; for MICa: MIC of the antibiotic: antibiotic alone; for MICa: MIC of the antibiotic / MICac: MIC of the antibiotic in the combination: unit not given; for MICac: MIC of the antibiotic in the combination: with D-11 at MICbc 4
Procedure, shortened: as §1

P. aeruginosa PAO1 = assay: microbe, parasite or virus in culture; settings: PAO1
Procedure, shortened: as §1

P. aeruginosa ATCC27853 = assay: microbe, parasite or virus in culture; parameters: MICa: MIC of the antibiotic / MICac: MIC of the antibiotic in the combination: unit not given beside the values; settings: strain ATCC27853; for FICI: antibiotic + D-11 (MICb/MICbc 32/4); for MICa: MIC of the antibiotic: antibiotic alone; for MICa: MIC of the antibiotic / MICac: MIC of the antibiotic in the combination: unit not given; for MICac: MIC of the antibiotic in the combination: with D-11 at MICbc 4
Procedure, shortened: as §1

P. aeruginosa NR-31040 = assay: microbe, parasite or virus in culture; parameters: MICa: MIC of the antibiotic / MICac: MIC of the antibiotic in the combination: unit not given beside the values; settings: for MICac: MIC of the antibiotic in the combination: with D-11 at MICbc 4
Procedure, shortened: as §1

P. aeruginosa NR-31041 = assay: microbe, parasite or virus in culture; parameters: MICa: MIC of the antibiotic / MICac: MIC of the antibiotic in the combination: unit not given beside the values
Procedure, shortened: as §1

P. aeruginosa PA14 = assay: microbe, parasite or virus in culture; parameters: MICa: MIC of the antibiotic / MICac: MIC of the antibiotic in the combination: unit not given beside the values; settings: strain PA14; for MICa: MIC of the antibiotic: antibiotic alone; for MICa: MIC of the antibiotic / MICac: MIC of the antibiotic in the combination: unit not given; for MICac: MIC of the antibiotic in the combination: with D-11 at MICbc 4
Procedure, shortened: as §1

P. aeruginosa PAK = assay: microbe, parasite or virus in culture; parameters: MICa: MIC of the antibiotic / MICac: MIC of the antibiotic in the combination: unit not given beside the values; settings: strain PAK; for MICa: MIC of the antibiotic: antibiotic alone; for MICa: MIC of the antibiotic / MICac: MIC of the antibiotic in the combination: unit not given; for MICac: MIC of the antibiotic in the combination: with D-11 at MICbc 4
Procedure, shortened: as §1

P. aeruginosa HM-214 = test system: P. aeruginosa HM-214; parameters: MICa: MIC of the antibiotic / MICac: MIC of the antibiotic in the combination: unit not given beside the values; settings: strain HM-214
Procedure, shortened: as §1

P. aeruginosa AUMC-Pa-1 = settings: strain AUMC-Pa-1
Procedure, shortened: as §1

P. aeruginosa AUMC-Pa-2 = settings: strain AUMC-Pa-2
Procedure, shortened: as §1

[1] = test system: clinical P. aeruginosa isolates; assay: microbe, parasite or virus in culture; settings: antibiotic alone; for MIC: Pseudomonas aeruginosa, 18 h
Procedure, shortened: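 MIC is the lowest drug concentration showing no visible growth after 18 h at 37 °C. Two-fold dilutions in MHB were combined with an equal volume of bacterial suspension (about 1 × 10^6 CFU/mL), following CLSI broth microdilution, in triplicate.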

[2] = antibiotic + D-11 (MICb/MICbc 128/4)
[3] = antibiotic alone, unit not given
[4] = antibiotic + D-11 (MICb/MICbc 64/4)
[5] = strain NR-31040, unit not given
[6] = with D-11 at MICbc 4, unit not given

CN(C)c1cc(NC(=O)CNC(C)(C)C)c(O)c2c1C[C@H]1C[C@H]3[C@H](N(C)C)C(O)=C(C(N)=O)C(=O)[C@@]3(O)C(O)=C1C2=O [Tigecycline]
FICI (P. aeruginosa AUMC-Pa-3; [2]): 0.281 | MICa: MIC of the antibiotic (P. aeruginosa AUMC-Pa-3; [3]): 4 | MICac: MIC of the antibiotic in the combination (P. aeruginosa AUMC-Pa-3; unit not given): 1 | FICI (P. aeruginosa AUMC-Pa-4; [2]): 0.281 | MICa: MIC of the antibiotic (P. aeruginosa AUMC-Pa-4): 8 | MICac: MIC of the antibiotic in the combination (P. aeruginosa AUMC-Pa-4): 2 | FICI (P. aeruginosa AUMC-Pa-5; [4]): 1.063 | MICa: MIC of the antibiotic (P. aeruginosa AUMC-Pa-5): 8/8 | MICac: MIC of the antibiotic in the combination (P. aeruginosa AUMC-Pa-5): 8/8 | FICI (P. aeruginosa AUMC-Pa-6; [4]): 0.313 | MICa: MIC of the antibiotic (P. aeruginosa AUMC-Pa-6): 8 | MICac: MIC of the antibiotic in the combination (P. aeruginosa AUMC-Pa-6): 2 | FICI (P. aeruginosa PAO1; S3 Table, antibiotic + 2 μM D-11): 0.313 | FICI (P. aeruginosa PAO1; S3 Table, antibiotic + 4 μM D-11): 0.375 | MICac: the MIC for the antibiotic in the combination (P. aeruginosa PAO1; S3 Table, with 2 μM D-11): 1 µM | MICac: the MIC for the antibiotic in the combination (P. aeruginosa PAO1; S3 Table, with 4 μM D-11): 1 µM | MICa: the MIC of antibiotics (P. aeruginosa PAO1; S3 Table, antibiotic alone): 4 µM | FICI (P. aeruginosa ATCC27853): 0.375 | MICa: MIC of the antibiotic (P. aeruginosa ATCC27853): 4 | MICac: MIC of the antibiotic in the combination (P. aeruginosa ATCC27853): 1 | MIC (P. aeruginosa NR-31040; Pseudomonas aeruginosa, NR31040, 18 h, read-out: MICa: MIC of the antibiotic): 8 µM | FICI (P. aeruginosa NR-31040; strain NR-31040, antibiotic + D-11 (MICb/MICbc 128/4)): 0.094 | MICac: MIC of the antibiotic in the combination (P. aeruginosa NR-31040; [5]): 0.5 | MIC (P. aeruginosa NR-31041; Pseudomonas aeruginosa, NR31041, 18 h, read-out: MICa: MIC of the antibiotic): 8.1 µM | FICI (P. aeruginosa NR-31041; strain NR-31041, antibiotic + D-11 (MICb/MICbc 64/4)): 0.188 | FICI (P. aeruginosa PA14; [2]): 0.281 | MICa: MIC of the antibiotic (P. aeruginosa PA14): 4 | MICac: MIC of the antibiotic in the combination (P. aeruginosa PA14): 1 | FICI (P. aeruginosa PAK; [4]): 0.313 | MICa: MIC of the antibiotic (P. aeruginosa PAK): 4 | MICac: MIC of the antibiotic in the combination (P. aeruginosa PAK): 1 | FICI (P. aeruginosa HM-214; [2]): 0.281 | FICI (P. aeruginosa AUMC-Pa-1; [2]): 0.281 | FICI (P. aeruginosa AUMC-Pa-2; [4]): 0.563 | MIC ([1]; read-out: Antibiotic sensibility (MIC) of clinical P. aeruginosa isolate AUMC-Pa-1, strain AUMC-Pa-1): 8 µM | MIC ([1]; read-out: Antibiotic sensibility (MIC) of clinical P. aeruginosa isolate AUMC-Pa-2, strain AUMC-Pa-2): 2 µM | MIC ([1]; read-out: Antibiotic sensibility (MIC) of clinical P. aeruginosa isolate AUMC-Pa-3, strain AUMC-Pa-3): 4 µM | MIC ([1]; read-out: Antibiotic sensibility (MIC) of clinical P. aeruginosa isolate AUMC-Pa-4, strain AUMC-Pa-4): 8 µM | MIC ([1]; read-out: Antibiotic sensibility (MIC) of clinical P. aeruginosa isolate AUMC-Pa-5, strain AUMC-Pa-5): 8 µM | MIC ([1]; read-out: Antibiotic sensibility (MIC) of clinical P. aeruginosa isolate AUMC-Pa-6, strain AUMC-Pa-6): 8 µM | MIC ([1]; read-out: Antibiotic sensibility (MIC) of clinical P. aeruginosa isolate HM-214, strain HM-214): 4 µM | MIC ([1]; read-out: Antibiotic sensibility (MIC) of clinical P. aeruginosa isolate NR-31040, strain NR-31040): 8 µM | MIC ([1]; read-out: Antibiotic sensibility (MIC) of clinical P. aeruginosa isolate NR-31041, strain NR-31041): 8 µM

Spiramycin
MICac: MIC of the antibiotic in the combination (P. aeruginosa AUMC-Pa-3; unit not given): 64 | MICa: MIC of the antibiotic (P. aeruginosa AUMC-Pa-4): >128/>128 | MICac: MIC of the antibiotic in the combination (P. aeruginosa AUMC-Pa-4): >128/>128 | MICa: MIC of the antibiotic (P. aeruginosa AUMC-Pa-5): >128/128 | MICac: MIC of the antibiotic in the combination (P. aeruginosa AUMC-Pa-5): >128/128 | MICa: MIC of the antibiotic (P. aeruginosa AUMC-Pa-6): >128/128 | MICac: MIC of the antibiotic in the combination (P. aeruginosa AUMC-Pa-6): >128/128 | MIC of spiramycin alone (P. aeruginosa PAO1): higher than 128 μM | FICI (P. aeruginosa PAO1; spiramycin + D-11, 256 used for the calculation): 0.625 | MICa: the MIC of antibiotics (P. aeruginosa PAO1; S1 Table, macrolide alone): >128/>128 μM and >128/128 μM | FICI (P. aeruginosa ATCC27853): 0.625 | MICa: MIC of the antibiotic (P. aeruginosa ATCC27853): >128/128 | MICac: MIC of the antibiotic in the combination (P. aeruginosa ATCC27853): >128/128 | MICa: MIC of the antibiotic (P. aeruginosa NR-31040; strain NR-31040, antibiotic alone, unit not given): >128/128 | MICac: MIC of the antibiotic in the combination (P. aeruginosa NR-31040; [5]): >128/128 | MICa: MIC of the antibiotic (P. aeruginosa NR-31041; strain NR-31041, antibiotic alone, unit not given): >128/128 | MICac: MIC of the antibiotic in the combination (P. aeruginosa NR-31041; strain NR-31041, with D-11 at MICbc 4, unit not given): >128/128 | MICa: MIC of the antibiotic (P. aeruginosa PA14): >128/128 | MICac: MIC of the antibiotic in the combination (P. aeruginosa PA14): >128/128 | MICa: MIC of the antibiotic (P. aeruginosa PAK): >128/128 | MICac: MIC of the antibiotic in the combination (P. aeruginosa PAK): >128/128 | MICa: MIC of the antibiotic (P. aeruginosa HM-214; [3]): >128/128 | MICac: MIC of the antibiotic in the combination (P. aeruginosa HM-214; [6]): >128/128 | MICac: MIC of the antibiotic in the combination (P. aeruginosa AUMC-Pa-1; [6]): 64 | MICa: MIC of the antibiotic (P. aeruginosa AUMC-Pa-2; [3]): >128/128 | MICac: MIC of the antibiotic in the combination (P. aeruginosa AUMC-Pa-2; [6]): >128/128 | Antibiotic sensibility (MIC) of clinical P. aeruginosa isolate AUMC-Pa-1 ([1]; strain AUMC-Pa-1): >128 µM | Antibiotic sensibility (MIC) of clinical P. aeruginosa isolate AUMC-Pa-2 ([1]; strain AUMC-Pa-2): >128 µM | Antibiotic sensibility (MIC) of clinical P. aeruginosa isolate AUMC-Pa-3 ([1]; strain AUMC-Pa-3): >128 µM | Antibiotic sensibility (MIC) of clinical P. aeruginosa isolate AUMC-Pa-4 ([1]; strain AUMC-Pa-4): >128 µM | Antibiotic sensibility (MIC) of clinical P. aeruginosa isolate AUMC-Pa-5 ([1]; strain AUMC-Pa-5): >128 µM | Antibiotic sensibility (MIC) of clinical P. aeruginosa isolate AUMC-Pa-6 ([1]; strain AUMC-Pa-6): >128 µM | Antibiotic sensibility (MIC) of clinical P. aeruginosa isolate HM-214 ([1]; strain HM-214): >128 µM | Antibiotic sensibility (MIC) of clinical P. aeruginosa isolate NR-31040 ([1]; strain NR-31040): >128 µM | Antibiotic sensibility (MIC) of clinical P. aeruginosa isolate NR-31041 ([1]; strain NR-31041): >128 µM
